Here are results for four molecules from ChEMBL document CHEMBL1201862, “PubChem BioAssay data set” (2004).

As usually defined, the AC50 is the concentration at which the activity in the assay is half-maximal. The term EC50 denotes the concentration that produces a half-maximal response. In general, IC50 refers to the concentration that gives 50% inhibition.

The structures appear in SMILES notation. The source made the active and inactive calls.

Assay type in all cases: functional
For assay [1], the target named is T1, Replicative DNA helicase DnaB (Mycobacterium tuberculosis, UniProt P9WMR3).
T1 sequence (P9WMR3 whole entry): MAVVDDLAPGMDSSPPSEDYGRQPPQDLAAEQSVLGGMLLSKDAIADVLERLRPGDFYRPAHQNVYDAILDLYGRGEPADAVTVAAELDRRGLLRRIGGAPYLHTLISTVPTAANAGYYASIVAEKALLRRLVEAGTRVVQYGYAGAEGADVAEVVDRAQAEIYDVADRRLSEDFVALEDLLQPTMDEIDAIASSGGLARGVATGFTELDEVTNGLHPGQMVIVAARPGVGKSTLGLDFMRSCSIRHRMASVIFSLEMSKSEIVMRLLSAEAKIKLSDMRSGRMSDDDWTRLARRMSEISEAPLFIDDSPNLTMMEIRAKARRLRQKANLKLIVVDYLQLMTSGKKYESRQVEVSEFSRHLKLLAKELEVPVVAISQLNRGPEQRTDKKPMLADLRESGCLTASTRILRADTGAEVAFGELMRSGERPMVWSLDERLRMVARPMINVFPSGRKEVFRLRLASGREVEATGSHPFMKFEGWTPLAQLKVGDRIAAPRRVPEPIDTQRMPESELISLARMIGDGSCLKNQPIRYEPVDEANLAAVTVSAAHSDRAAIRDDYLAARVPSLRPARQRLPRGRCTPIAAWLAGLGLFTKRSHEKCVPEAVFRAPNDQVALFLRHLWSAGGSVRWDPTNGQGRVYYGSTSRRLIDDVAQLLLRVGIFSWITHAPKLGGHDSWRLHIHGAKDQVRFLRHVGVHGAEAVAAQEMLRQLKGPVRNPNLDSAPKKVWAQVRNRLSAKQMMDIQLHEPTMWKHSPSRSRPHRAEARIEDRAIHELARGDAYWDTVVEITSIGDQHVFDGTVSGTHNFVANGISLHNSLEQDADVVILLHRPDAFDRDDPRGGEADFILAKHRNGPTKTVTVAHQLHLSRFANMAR
As to the kind of experiment: DnaB intein splicing inhibitors, dose response, biochemical, cell-free fluorescence (AID 449749).

A further assay deals with T2, Protein RecA (Mycobacterium tuberculosis, UniProt P9WHJ3).
T2 sequence (P9WHJ3 whole entry): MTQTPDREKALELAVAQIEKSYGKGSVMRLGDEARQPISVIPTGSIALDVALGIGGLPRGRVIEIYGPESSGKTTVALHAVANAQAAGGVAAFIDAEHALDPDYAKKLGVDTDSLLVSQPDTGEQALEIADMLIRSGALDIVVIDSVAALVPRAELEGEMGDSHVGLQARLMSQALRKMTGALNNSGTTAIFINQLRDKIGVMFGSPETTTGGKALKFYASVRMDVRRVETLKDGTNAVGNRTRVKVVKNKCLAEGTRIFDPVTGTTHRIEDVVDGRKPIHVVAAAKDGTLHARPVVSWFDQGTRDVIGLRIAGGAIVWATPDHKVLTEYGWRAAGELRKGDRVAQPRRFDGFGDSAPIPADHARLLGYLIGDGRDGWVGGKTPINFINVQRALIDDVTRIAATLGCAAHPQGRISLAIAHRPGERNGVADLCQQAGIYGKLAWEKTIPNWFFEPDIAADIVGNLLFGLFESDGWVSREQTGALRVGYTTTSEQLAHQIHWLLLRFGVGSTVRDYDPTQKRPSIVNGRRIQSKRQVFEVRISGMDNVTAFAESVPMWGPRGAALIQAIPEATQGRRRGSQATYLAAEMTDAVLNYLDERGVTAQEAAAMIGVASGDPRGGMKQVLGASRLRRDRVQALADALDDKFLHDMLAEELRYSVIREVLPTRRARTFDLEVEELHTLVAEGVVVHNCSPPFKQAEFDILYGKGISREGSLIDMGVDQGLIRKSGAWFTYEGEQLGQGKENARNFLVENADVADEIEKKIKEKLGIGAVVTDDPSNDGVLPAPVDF
As to the kind of experiment: Fluorescence Cell-Free Homogeneous Dose Retest to Identify Inhibitors of RecA-Intein Splicing Activity. [Related pubchem assays (depositor defined):AID2097, AID2223, AID489010, AID492950].

In assay [2] the target is T3, Apoptotic protease-activating factor 1 (Homo sapiens, UniProt O14727).
T3 sequence (O14727 whole entry): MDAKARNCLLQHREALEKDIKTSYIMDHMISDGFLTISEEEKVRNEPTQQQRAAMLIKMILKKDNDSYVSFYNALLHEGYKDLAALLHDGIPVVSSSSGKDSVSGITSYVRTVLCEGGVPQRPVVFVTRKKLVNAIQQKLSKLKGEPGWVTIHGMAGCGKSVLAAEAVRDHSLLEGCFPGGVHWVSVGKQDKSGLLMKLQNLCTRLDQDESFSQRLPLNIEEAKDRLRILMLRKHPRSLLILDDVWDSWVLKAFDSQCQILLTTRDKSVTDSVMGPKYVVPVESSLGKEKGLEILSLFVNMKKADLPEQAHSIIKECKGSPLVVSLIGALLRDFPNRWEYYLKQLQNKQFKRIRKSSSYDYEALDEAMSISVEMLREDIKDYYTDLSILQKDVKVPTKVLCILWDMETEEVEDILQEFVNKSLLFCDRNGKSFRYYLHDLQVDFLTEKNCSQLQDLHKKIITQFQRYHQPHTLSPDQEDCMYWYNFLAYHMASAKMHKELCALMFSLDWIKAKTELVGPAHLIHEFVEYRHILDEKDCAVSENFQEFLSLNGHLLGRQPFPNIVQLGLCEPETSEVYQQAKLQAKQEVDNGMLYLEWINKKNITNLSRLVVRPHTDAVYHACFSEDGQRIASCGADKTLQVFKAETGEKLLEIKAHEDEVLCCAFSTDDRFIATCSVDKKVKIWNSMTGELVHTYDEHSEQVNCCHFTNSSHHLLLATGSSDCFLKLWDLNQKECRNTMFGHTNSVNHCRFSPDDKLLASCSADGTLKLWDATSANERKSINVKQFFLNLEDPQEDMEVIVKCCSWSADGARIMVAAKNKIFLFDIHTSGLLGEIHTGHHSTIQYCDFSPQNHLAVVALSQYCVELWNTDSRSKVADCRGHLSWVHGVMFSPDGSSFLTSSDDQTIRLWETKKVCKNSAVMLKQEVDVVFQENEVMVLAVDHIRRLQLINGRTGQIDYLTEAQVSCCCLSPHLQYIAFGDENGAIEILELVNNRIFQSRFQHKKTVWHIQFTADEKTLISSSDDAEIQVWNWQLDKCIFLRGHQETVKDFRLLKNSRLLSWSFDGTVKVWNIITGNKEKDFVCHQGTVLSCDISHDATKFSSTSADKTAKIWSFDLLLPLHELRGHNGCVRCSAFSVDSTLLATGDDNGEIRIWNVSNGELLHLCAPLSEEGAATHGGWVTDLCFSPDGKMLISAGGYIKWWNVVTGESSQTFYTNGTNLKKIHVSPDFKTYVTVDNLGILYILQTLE

The subject of a further assay is INS1. The assay can be described thus: INS-1E survival protection against cytokine death – cell-based, luminescence, retest, dose response (AID 449756).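 Note: cell death triggered by IL-1 beta plus TNF-alpha plus IFN-gamma mixture; protective hits raise ATP signal compared with cytokine alone wells.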 Particulars: Rattus norvegicus.

Regarding `COc1cc2c(cc1OC)-c1c(OC)c(OC)cc3c1C(C2)N(C)CC3` (stereo unspecified), the AC50 in assay [1] was 550 nM (active). Besides, the EC50 at Protein RecA was 614 nM (active).
As for `CCc1ccc(S(=O)(=O)/N=C2\C=C(Nc3cccc(C(=O)O)c3)C(=O)c3ccccc32)cc1`, the half-maximal activity concentration (AC50) in assay [1] is 276 nM (active). Moreover, the IC50 in assay [2] was 7070 nM (active). Further, on Protein RecA, the EC50 was 216 nM (active).
In the case of `CCCCCCCCCCOC(=O)Cn1c(COc2cccc(OC)c2)[n+](C)c2ccccc21`, the AC50 was 4320 nM (active) in assay [1] and 2940 nM (active) with INS1. Moreover, in assay [2], the IC50 is 10200 nM (active). Moreover, the EC50 on Protein RecA was 9700 nM (active).
With `COc1cc(OC)c(NC2=CC(=O)C(=O)c3ccccc32)cc1Cl`, the IC50 in assay [2] was 2120 nM (active). Moreover, in the assay on INS1, the AC50 is 3570 nM (active).
